Test results taken from patent US20250115620A1, “BRIDGED TRICYCLIC CARBAMOYLPYRIDONE COMPOUNDS AND USES THEREOF” (Gilead Sciences, Inc., priority 2022, published 2025).
Where two headings read alike, the source gives them in different places.

Legend:
[1] = system: HIV-1 (IIIB); assay: microbe, parasite or virus in culture; assay type: cell-based; conditions: Human immunodeficiency virus 1, IIIB, MT4, 120 h, read-out: MT4 EC50
[2] = system: pLAI reporter virus; assay: microbe, parasite or virus in culture; assay type: cell-based, HIV; conditions: Human immunodeficiency virus 1, MT4, 72 h
[3] = in vitro; conditions: human; for CC50 at 5 days: uninfected MT-4 cells
[4] = HIV-1 (IIIB) in MT-4 cells, 5 days incubation, Cell Titer Glo

SMILES	EC50 [1, 4] [nM]	EC50 ([2]; read-out: RLUC 50% HS EC50) [nM]	EC50 ([2]; read-out: RLUC CCM EC50) [nM]	CC50 at 5 days [3] [nM]	EC50 [1] [nM]	CC50 [3] [nM]
CCC1=NO[C@@]2(CC[C@H](C)N3C[C@H]2n2cc(C(=O)NCc4ccc(F)cc4F)c(=O)c(O)c2C3=O)O1 [Example 94, (3′S,5R,7′R)—N-(2,4-difluorobenzyl)-3-ethyl-12′-hydroxy-3′-methyl-1′,11′-dioxo-1′,4′,5′,11′-tetrahydro-3′H,7′H-spiro[[1,4,2]dioxazole-5,6′-[2,7]methanopyrido[1,2-a][1,4]diazonine]-10′-carboxamide]	1	684	0.2	30200		
COC[C@@H]1CO[C@]2(CC[C@H](C)N3C[C@H]2n2cc(C(=O)NCc4c(F)cc(F)cc4F)c(=O)c(O)c2C3=O)O1 (single isomer, unassigned) [168 (peak 2)]	2	16.4	0.6	37000		
CC1=N[C@]2(CC[C@H](C)N3C[C@H]2n2cc(C(=O)NCc4ccc(F)cc4F)c(=O)c(O)c2C3=O)ON1C [Example 149b, (3′S,5R,7′R)—N-(2,4-difluorobenzyl)-12′-hydroxy-2,3,3′-trimethyl-1′,11′-dioxo-1′,4′,5′,11′-tetrahydro-2H,3′H,7′H-spiro[[1,2,4]oxadiazole-5,6′-[2,7]methanopyrido[1,2-a][1,4]diazonine]-10′-carboxamide]	1.4	5.7	0.4	39100		
CCC1=NO[C@@]2(CC[C@H](C)N3C[C@H]2n2cc(C(=O)NCc4c(F)cc(F)cc4F)c(=O)c(O)c2C3=O)O1 [Example 93, (3′S,5R,7′R)-3-ethyl-12′-hydroxy-3′-methyl-1′,11′-dioxo-N-(2,4,6-trifluorobenzyl)-1′,4′,5′,11′-tetrahydro-3′H,7′H-spiro[[1,4,2]dioxazole-5,6′-[2,7]methanopyrido[1,2-a][1,4]diazonine]-10′-carboxamide]	0.7	622	0.2	13600		
C[C@H]1CC[C@]2(CC(c3ccccc3)=NO2)[C@H]2CN1C(=O)c1c(O)c(=O)c(C(=O)NCc3ccc(F)cc3F)cn12 [Example 11, (3′S,5S,7′R)—N-(2,4-difluorobenzyl)-12′-hydroxy-3′-methyl-1′,11′-dioxo-3-phenyl-1′,4′,5′,11′-tetrahydro-3′H,4H,7′H-spiro[isoxazole-5,6′-[2,7]methanopyrido[1,2-a][1,4]diazonine]-10′-carboxamide]	1.8	15.4	1.7	8730		
C[C@H]1CC[C@]2(CC(N3CCCC3)=NO2)[C@H]2CN1C(=O)c1c(O)c(=O)c(C(=O)NCc3c(F)cc(F)cc3F)cn12 [Example 75, (3′S,5S,7′R)-12′-hydroxy-3′-methyl-1′,11′-dioxo-3-(pyrrolidin-1-yl)-N-(2,4,6-trifluorobenzyl)-1′,4′,5′,11′-tetrahydro-3′H,4H,7′H-spiro[isoxazole-5,6′-[2,7]methanopyrido[1,2-a][1,4]diazonine]-10′-carboxamide]	1.8	1.8	0.3	14100		
C[C@H]1CC[C@]2(CO[C@H](Cc3ccccc3)O2)[C@H]2CN1C(=O)c1c(O)c(=O)c(C(=O)NCc3c(F)cc(F)cc3F)cn12 [Example 134, (2S,3′S,4R,7′R)-2-benzyl-12′-hydroxy-3′-methyl-1′,11′-dioxo-N-(2,4,6-trifluorobenzyl)-1′,4′,5′,11′-tetrahydro-3′H,7′H-spiro[[1,3]dioxolane-4,6′-[2,7]methanopyrido[1,2-a][1,4]diazonine]-10′-carboxamide]		6.3	1.9	8500	4.8	
C[C@H]1CC[C@]2(CC(Cc3ccccc3)=NO2)[C@H]2CN1C(=O)c1c(O)c(=O)c(C(=O)NCc3ccc(F)cc3F)cn12 [Example 12, (3′S,5S,7′R)-3-benzyl-N-(2,4-difluorobenzyl)-12′-hydroxy-3′-methyl-1′,11′-dioxo-1′,4′,5′,11′-tetrahydro-3′H,4H,7′H-spiro[isoxazole-5,6′-[2,7]methanopyrido[1,2-a][1,4]diazonine]-10′-carboxamide]		35.6	1.1		1.7	23500
C[C@H]1CC[C@@]2(CC(=O)N(Cc3ccc(F)cc3)O2)[C@H]2CN1C(=O)c1c(O)c(=O)c(C(=O)NCc3c(F)cc(F)cc3F)cn12 [Example 102, (3′S,5R,7′R)-2-(4-fluorobenzyl)-12′-hydroxy-3′-methyl-1′,3,11′-trioxo-N-(2,4,6-trifluorobenzyl)-1′,4′,5′,11′-tetrahydro-3′H,7′H-spiro[isoxazolidine-5,6′-[2,7]methanopyrido[1,2-a][1,4]diazonine]-10′-carboxamide]	11.5	30	2	8790		
C[C@H]1CC[C@]2(CC(CC(F)(F)F)=NO2)[C@H]2CN1C(=O)c1c(O)c(=O)c(C(=O)NCc3c(F)cc(F)cc3F)cn12 [Example 9]	0.8	146	0.5	10200		
CC1=NO[C@@]2(CC[C@H](C)N3C[C@H]2n2cc(C(=O)NCc4ccc(F)cc4F)c(=O)c(O)c2C3=O)N1 [Example 148, (3′S,5R,7′R)—N-(2,4-difluorobenzyl)-12′-hydroxy-3,3′-dimethyl-1′,11′-dioxo-1′,4′,5′,11′-tetrahydro-3′H,4H,7′H-spiro[[1,2,4]oxadiazole-5,6′-[2,7]methanopyrido[1,2-a][1,4]diazonine]-10′-carboxamide]	3.4	21	1.1	≥ 50000		
C[C@H]1CC[C@@]2(CC(C#CC(C)(C)S(C)(=O)=O)=NO2)[C@H]2CN1C(=O)c1c(O)c(=O)c(C(=O)NCc3c(F)cc(F)cc3F)cn12 [Example 80, (3′S,5R,7′R)-12′-hydroxy-3′-methyl-3-(3-methyl-3-(methylsulfonyl)but-1-yn-1-yl)-1′,11′-dioxo-N-(2,4,6-trifluorobenzyl)-1′,4′,5′,11′-tetrahydro-3′H,4H,7′H-spiro[isoxazole-5,6′-[2,7]methanopyrido[1,2-a][1,4]diazonine]-10′-carboxamide]	81.5	30.1	15.7	≥ 50000		
C[C@H]1CC[C@]2(CC(=O)N(Cc3ccccn3)O2)[C@H]2CN1C(=O)c1c(O)c(=O)c(C(=O)NCc3c(F)cc(F)cc3F)cn12 [Example 159, (3′S,5S,7′R)-12′-hydroxy-3′-methyl-1′,3,11′-trioxo-2-(pyridin-2-ylmethyl)-N-(2,4,6-trifluorobenzyl)-1′,4′,5′,11′-tetrahydro-3′H,7′H-spiro[isoxazolidine-5,6′-[2,7]methanopyrido[1,2-a][1,4]diazonine]-10′-carboxamide]	1.8	1.1	0.8	≥ 50000		
CC1=NO[C@@]2(CC[C@H](C)N3C[C@H]2n2cc(C(=O)NCc4c(F)cc(F)cc4F)c(=O)c(O)c2C3=O)[C@@H]1F [Example 33, (3′S,4R,5R,7′R)-4-fluoro-12′-hydroxy-3,3′-dimethyl-1′,11′-dioxo-N-(2,4,6-trifluorobenzyl)-1′,4′,5′,11′-tetrahydro-3′H,4H,7′H-spiro[isoxazole-5,6′-[2,7]methanopyrido[1,2-a][1,4]diazonine]-10′-carboxamide]	0.7	342	0.4	14100		
C[C@H]1CC[C@@]2(CO2)[C@H]2CN1C(=O)c1c(O)c(=O)c(C(=O)NCc3c(F)cc(F)cc3F)cn12 [Example 166, (2S,3′S,7′R)-12′-hydroxy-3′-methyl-1′,11′-dioxo-N-(2,4,6-trifluorobenzyl)-1′,4′,5′,11′-tetrahydro-3′H,7′H-spiro[oxirane-2,6′-[2,7]methanopyrido[1,2-a][1,4]diazonine]-10′-carboxamide]	0.9	1.3	0.2	4600		
CC1=NO[C@@]2(CC[C@H](C)N3C[C@H]2n2cc(C(=O)NCc4ccc(F)cc4F)c(=O)c(O)c2C3=O)[C@H]1O [Example 28, (3′S,4S,5R,7′R)—N-(2,4-difluorobenzyl)-4,12′-dihydroxy-3,3′-dimethyl-1′,11′-dioxo-1′,4′,5′,11′-tetrahydro-3′H,4H,7′H-spiro[isoxazole-5,6′-[2,7]methanopyrido[1,2-a][1,4]diazonine]-10′-carboxamide]	0.9	51.5	0.4	47000		
C[C@H]1CCC2(OCCO2)[C@H]2CN1C(=O)c1c(O)c(=O)c(C(=O)NCc3ccc(F)cc3F)cn12 [Example 129, (3′S,7′R)—N-(2,4-difluorobenzyl)-12′-hydroxy-3′-methyl-1′,11′-dioxo-1′,4′,5′,11′-tetrahydro-3′H,7′H-spiro[[1,3]dioxolane-2,6′-[2,7]methanopyrido[1,2-a][1,4]diazonine]-10′-carboxamide]	0.5	8	0.2	27400		
C[C@H]1CC[C@@]2(Cc3ccccc3O2)[C@H]2CN1C(=O)c1c(O)c(=O)c(C(=O)NCc3c(F)cc(F)cc3F)cn12 [Example 144, (2R,3′S,7′R)-12′-hydroxy-3′-methyl-1′,11′-dioxo-N-(2,4,6-trifluorobenzyl)-1′,4′,5′,11′-tetrahydro-3H,3′H,7′H-spiro[benzofuran-2,6′-[2,7]methanopyrido[1,2-a][1,4]diazonine]-10′-carboxamide]	1.3	2.3	0.1	4810		
